Measured values: patent publication US20020156038A1, “Gene expression profiling of antidepressant action in the brain” (priority 2000, published 2002)
Where a name gives a salt, the structure may show the parent alone.

Experiments:
male Wistar rats = assay: Chronic mild stress (CMS) model, consumption of 1% sucrose solution; assay type: in vivo, rat; settings: for sucrose intake as compared to chronic vehicle administration: control animals; for duration of treatment until increase of sucrose intake reached significance / sucrose consumption (CMS-induced deficit) / sucrose intake at end of treatment vs vehicle-treated controls / sucrose intake at end of treatment vs vehicle-treated stressed animals: stressed animals; for sucrose intake at end of treatment vs vehicle-treated controls / sucrose intake at end of treatment vs vehicle-treated stressed animals: Week 5
Description: Gene expression profiling of antidepressants should be carried in the context of a behavioral model of depression. […] [Willner, 1997 #144] [Yadid, 2000 #422]. The CMS model was developed to mimic anhedonia, a core symptom of depressive disorders. Chronic sequential administration of a variety of mild stressors causes a decrease in responsiveness to rewards in rats, which is reversed by chronic administration of antidepressants drugs [Willner, 1992 #150]. The CMS model of depression also causes a decrease in body weight [Forbes, 1996 #413] but the magnitude of this decrease is minor and the validity, reliability and utility of the CMS is overall well recognized [Yadid, 2000 #422] [Argyropoulos, 1997 #205] #] [Willner, 1996 #226].
On the basis of sucrose intake scores following two weeks of stress, both stressed and control groups were divided further into matched subgroups (n=8), and for the subsequent five weeks received twice-daily intraperitoneal injections of vehicle (isotonic mannitol solution, pH 4.0, 1 ml/kg) or novelR1 (0.16 mg/kg). […] Sucrose tests were carried out twenty-four hours following the last drug injection (in the case of b.i.d. regime, the second injections on the day preceding the sucrose tests were omitted).
The behavioral results obtained in this study were analyzed by multiple analysis of variance with three between-subjects factors (stress/control, drug treatments and successive sucrose tests). Fisher's LSD test was used for post-hoc comparisons of means.

[1] = system: tyrosine hydroxylase mRNA; assay: Quantitative in situ hybridization histochemistry in locus coeruleus; assay type: in vivo, rat; settings: LC
Description: In situ hybridization histochemistry was performed according to the procedures described [Bonaventure, 1998 #353] on adjacent tissue sections of the one used for LCM. The plasmid (pBluescript II SK, Stratagene, San Diego, Calif.) containing the cDNA coding for tyrosine hydroxylase (GB:M10244) was linearized and [^35S]UTP labeled cRNA probe was generated by in vitro transcription with T7 polymerase. Sections were hybridized at 50° C. with 1.106 c.p.m of [^35S]UTP labeled cRNA probe (80 μl per section). After high stringency washes, the sections were exposed to Kodak BiomaxMR film for sixteen hours. [^14C] standard strips (American Radiolabeled chemicals Inc., St Louis, Missouri) were co-exposed to allow densitometry. Autoradiograms were quantified with the aid of an MCID-M4 3.0 Image Analysis system (Imaging Research, St. Catharines, Ontario, Canada). Optical densities in the LC were transformed into levels of bound radioactivity after calibration of the image analyzer with grey-values generated by co-exposed standards. The hybridization signal was expressed as μCi/g. The Student's t-test was used for comparison between the groups.

| up-regulation of tyrosine hydroxylase mRNA level by in situ hybridization ([1]; drug/CMS group) | up-regulation of tyrosine hydroxylase mRNA level by in situ hybridization ([1]; unstressed rats) | SMILES | sucrose intake at the end of the behavioral experiment (male Wistar rats; CMS) | sucrose intake at the end of the behavioral experiment (male Wistar rats; control) | sucrose intake as compared to chronic vehicle administration (male Wistar rats) | duration of treatment until increase of sucrose intake reached significance (male Wistar rats) | sucrose consumption (CMS-induced deficit) (male Wistar rats) | sucrose intake at end of treatment vs vehicle-treated controls (male Wistar rats) | sucrose intake at end of treatment vs vehicle-treated stressed animals (male Wistar rats) |
| --- | --- | --- | --- | --- | --- | --- | --- | --- | --- |
| confirmed | confirmed | CN(C)CCCN1c2ccccc2CCc2ccccc21 [imipramine, imipramine HCl] | 13 grams | 13 grams | did not change the sucrose intake | three | gradually increased the sucrose consumption | comparable | significantly higher |
| confirmed | confirmed | Cc1nc2ccccn2c(=O)c1CCN1CCc2oc3ccccc3c2C1 [novelR1] | 13 grams | 13 grams | no significant effect | two | fully reversed | did not differ | significantly higher |
